Molecular target: T1, sGC α1/β1 heterodimer (Homo sapiens, UniProt Q02108+Q02153)
T1 construct: expressed in transfected cells
T1 sequence (Q02108 1-690): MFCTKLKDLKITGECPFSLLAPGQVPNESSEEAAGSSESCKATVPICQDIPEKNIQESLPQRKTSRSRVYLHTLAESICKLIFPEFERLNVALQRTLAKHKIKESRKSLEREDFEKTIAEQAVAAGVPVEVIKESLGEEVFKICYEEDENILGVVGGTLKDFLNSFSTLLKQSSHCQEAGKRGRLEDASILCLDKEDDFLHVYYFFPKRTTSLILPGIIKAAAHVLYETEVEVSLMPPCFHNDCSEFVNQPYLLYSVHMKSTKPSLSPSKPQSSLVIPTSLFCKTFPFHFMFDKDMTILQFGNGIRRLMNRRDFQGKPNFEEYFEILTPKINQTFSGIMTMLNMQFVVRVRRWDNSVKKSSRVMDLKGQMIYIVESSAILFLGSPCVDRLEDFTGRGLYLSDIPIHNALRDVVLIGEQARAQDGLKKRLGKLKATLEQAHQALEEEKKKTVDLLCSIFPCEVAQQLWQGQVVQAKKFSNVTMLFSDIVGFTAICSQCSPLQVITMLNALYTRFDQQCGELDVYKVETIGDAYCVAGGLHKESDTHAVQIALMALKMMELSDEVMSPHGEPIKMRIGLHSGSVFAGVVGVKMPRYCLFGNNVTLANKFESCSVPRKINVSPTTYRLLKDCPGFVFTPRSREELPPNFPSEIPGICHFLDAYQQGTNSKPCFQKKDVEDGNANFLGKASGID
T1 sequence (Q02153 1-619): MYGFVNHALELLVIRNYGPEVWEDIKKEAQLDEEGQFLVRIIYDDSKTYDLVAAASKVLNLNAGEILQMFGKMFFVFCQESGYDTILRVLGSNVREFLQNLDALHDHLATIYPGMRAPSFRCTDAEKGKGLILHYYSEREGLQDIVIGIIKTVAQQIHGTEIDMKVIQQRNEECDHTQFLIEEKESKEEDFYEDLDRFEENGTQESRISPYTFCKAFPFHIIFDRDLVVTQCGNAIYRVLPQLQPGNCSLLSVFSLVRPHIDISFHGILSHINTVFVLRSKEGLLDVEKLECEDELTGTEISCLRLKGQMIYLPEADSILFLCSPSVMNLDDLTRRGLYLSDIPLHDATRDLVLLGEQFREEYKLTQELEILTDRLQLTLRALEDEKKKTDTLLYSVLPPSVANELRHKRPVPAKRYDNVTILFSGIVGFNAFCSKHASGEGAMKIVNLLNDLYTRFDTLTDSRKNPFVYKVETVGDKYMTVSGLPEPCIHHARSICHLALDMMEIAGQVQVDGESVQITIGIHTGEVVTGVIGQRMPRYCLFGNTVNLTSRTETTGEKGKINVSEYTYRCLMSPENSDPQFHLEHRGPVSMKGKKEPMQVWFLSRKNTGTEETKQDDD
Test: Cell-Based sGC Functional Assay (CASA Assay), cGMP generation in CHO-K1/sGC cells
Details: maximum cGMP production of Compound A set to 100% activation, read-out: % Act. (percent activation relative to Compound A)
Text: sGC is a heme-containing enzyme that converts GTP to secondary messenger cGMP. Increases in cGMP levels affect several physiological processes including vasorelaxation through multiple downstream pathways. […] Heme-dependent activators (HDAs) preferentially activate sGC containing a ferrous heme group. To determine the effect of sGC activators on enzyme activity, the CASA assay was developed to monitor the generation of cGMP in a cell line that stably expresses the heterodimeric sGC protein.
A CHO-K1 cell line stably expressing the sGC α1/β1 heterodimer was generated using a standard transfection protocol. CHO-K1 cells were transfected with plasmids pIREShyghsGCα1 and pIRESneo-hsGCβ1 simultaneously using FUGENE reagent. Clones that stably express both subunits were selected with hygromycin and neomycin for ˜2 weeks. Clone #7 was chosen for the assay and was designated CHO-K1/sGC. CHO-K1/sGC cells were maintained in F-K12 medium containing 10% heat-inactivated Fetal Bovine Serum (FBS), 100 μg/mL penicillin/streptomycin, 0.5 mg/mL hygromycin and 0.25 mg/mL G418. The cells were then cryopreserved in LN2. On the day of the assay, cells thawed and resuspended in EBSS Assay Buffer (Sigma, E3024) supplemented with 5 mM MgCl2, 10 mM HEPES (4-(2-hydroxyethyl)piperazine-1-ethanesulfonic acid) and 0.05% BSA (bovine serum albumin) (EAB) and cell density was then adjusted to 4×10^5/mL with EAB. IBMX (3-isobutyl-1-methylxanthin, 0.5 mM) was added to inhibit degradation of cGMP. Compounds were diluted from DMSO stock solutions and added to the assay at a final DMSO concentration of 2.5%. Cells were incubated with compounds in the presence and absence of 1 μM of Diethylenetriamine/nitric oxide adduct (DETA-NO; Sigma, 17018) for 1 hr at 37° C. At the end of the incubation period, the reaction was terminated and the cells were lysed with the detection reagents from Cisbio Kits. The level of intracellular cGMP was determined using an HTRF-based assay kit (CisBio, 62GM2PEC), which detects the displacement of a fluorescence labeled cGMP from its specific antibody. The cGMP produced by test compounds was directly compared to the maximum cGMP production (this value was set to equal 100% activation.) of the published sGC-HDA Compound A:
[drawing 298] (Example 1 in WO 2010/065275, published Jun. 10, 2010). The test compounds' activities were then expressed as a percentage of Compound A, the standard in every experiment. This percent activation was calculated either in the presence or absence of DETA-NO which was then plotted. IP and maximum fold induction was derived using ADA analysis software for 4P fit.

Structure (SMILES) | Emax [%]
CC1(c2ccccn2)C(=O)Nc2nc(-c3cn4ncnc4c(CCCC(F)(F)F)n3)nc(O)c21 (centres unmarked) [Example 145B, 4-hydroxy-5-methyl-5-(pyridin-2-yl)-2-(8-(4,4,4-trifluorobutyl)-[1,2,4]triazolo[1,5-a]pyrazin-6-yl)-5H-pyrrolo[2,3-d]pyrimidin-6(7H)-one] | 64
CCCCc1nc(-c2nc(O)c3c(n2)NC(=O)C3(C)c2cccc(F)c2)cn2ncnc12 (centres unmarked) [Example 171A, 2-(8-Butyl-[1,2,4]triazolo[1,5-a]pyrazin-6-yl)-5-(3-fluorophenyl)-4-hydroxy-5-methyl-5,7-dihydro-6H-pyrrolo[2,3-d]pyrimidin-6-one] | 90
Nc1nc(-c2cn3ncnc3c(CCC(F)(F)F)n2)nc2c1C(c1ccc(C(F)(F)F)cn1)(C1CC1)C(=O)N2 (centres unmarked) [Example 80A, 4-amino-5-cyclopropyl-5-(5-(trifluoromethyl)pyridin-2-yl)-2-(8-(3,3,3-trifluoropropyl)-[1,2,4]triazolo[1,5-a]pyrazin-6-yl)-5H-pyrrolo[2,3-d]pyrimidin-6(7H)-one] | 115
O=C1Nc2nc(-c3cn4ncnc4c(CCC(F)(F)C(F)(F)F)n3)nc(O)c2C1(c1cncc(F)c1)C1CC1 (centres unmarked) [Example 124B, 5-cyclopropyl-5-(5-fluoropyridin-3-yl)-4-hydroxy-2-(8-(3,3,4,4,4-pentafluorobutyl)-[1,2,4]triazolo[1,5-a]pyrazin-6-yl)-5H-pyrrolo[2,3-d]pyrimidin-6(7H)-one] | 88
C[C@@]1(c2ccc(F)cc2)C(=O)Nc2nc(-c3cn4ncnc4c(CCCC(F)(F)F)n3)nc(N)c21 [Example 23A, (S)-4-amino-5-(4-fluorophenyl)-5-methyl-2-(8-(4,4,4-trifluorobutyl)-[1,2,4]triazolo[1,5-a]pyrazin-6-yl)-5,7-dihydro-6H-pyrrolo[2,3-d]pyrimidin-6-one] | 163
CC1(c2ccc(F)cn2)C(=O)Nc2nc(-c3cn4ncnc4c(CCC(F)(F)F)n3)nc(N)c21 (centres unmarked) [Example 81B, 4-amino-5-(5-fluoropyridin-2-yl)-5-methyl-2-(8-(3,3,3-trifluoropropyl)-[1,2,4]triazolo[1,5-a]pyrazin-6-yl)-5H-pyrrolo[2,3-d]pyrimidin-6(7H)-one] | 115
Cc1ccc(C2(C)C(=O)Nc3nc(-c4cn5ncnc5c(CCC(F)(F)C(F)(F)F)n4)nc(N)c32)nc1 (centres unmarked) [Example 19B, 4-amino-5-methyl-5-(5-methylpyridin-2-yl)-2-(8-(3,3,4,4,4-pentafluorobutyl)-[1,2,4]triazolo[1,5-a]pyrazin-6-yl)-5H-pyrrolo[2,3-d]pyrimidin-6(7H)-one] | 71
O=C1Nc2nc(-c3cn4ncnc4c(CCCC(F)(F)F)n3)nc(O)c2C1(c1ccc(F)cc1)C1CC1 (centres unmarked) [Example 139B, 5-cyclopropyl-5-(4-fluorophenyl)-4-hydroxy-2-(8-(4,4,4-trifluorobutyl)-[1,2,4]triazolo[1,5-a]pyrazin-6-yl)-5H-pyrrolo[2,3-d]pyrimidin-6(7H)-one] | 169
CCCCc1nc(-c2nc(N)c3c(n2)NC(=O)C3(c2ccc(Cl)cn2)C2CC2)cn2ncnc12 (centres unmarked) [Example 68A, 4-amino-2-(8-butyl-[1,2,4]triazolo[1,5-a]pyrazin-6-yl)-5-(5-chloropyridin-2-yl)-5-cyclopropyl-5H-pyrrolo[2,3-d]pyrimidin-6(7H)-one] | 113
CC1(c2ccc(Cl)cc2)C(=O)Nc2nc(-c3cn4ncnc4c(CCCC(F)(F)F)n3)nc(N)c21 (centres unmarked) [Example 29A, 4-amino-5-(4-chlorophenyl)-5-methyl-2-(8-(4,4,4-trifluorobutyl)-[1,2,4]triazolo[1,5-a]pyrazin-6-yl)-5H-pyrrolo[2,3-d]pyrimidin-6(7H)-one] | 101
CCCc1nc(-c2nc(N)c3c(n2)NC(=O)[C@@]3(C)c2ccc(F)cc2)cn2ncnc12 [Example 52A, (S)-4-amino-5-(4-fluorophenyl)-5-methyl-2-(8-propyl-[1,2,4]triazolo[1,5-a]pyrazin-6-yl)-5,7-dihydro-6H-pyrrolo[2,3-d]pyrimidin-6-one] | 96

Source: US10925876B2, “Methods for using triazolo-pyrazinyl soluble guanylate cyclase activators in fibrotic disorders” (Merck Sharp & Dohme Corp., priority 2016, dated 2021)
